For data set [1] the following is noted: critically ill patients; cited from earlier work. The method, then: It has been shown in healthy adults that with increasing weight, both V and clearance (CL) increase ([17]). […] Other models have also included weight as a covariate and obtained similar results ([10], [18]). Furthermore, Nguyen et al. described that caspofungin exposure was influenced by albumin concentration and body weight ([19]). During our model development, albumin was also tested ...

The conditions of data set [2]: doses of up to 200 mg daily for an extended period of time; cited from earlier work.
The conditions of data set [3]: cited from earlier work. From the text: This study has some limitations. […] As caspofungin is highly protein bound (∼97%), the extent of protein binding can change in ICU patients, and the measurement of unbound fractions may be useful; however, drug assessment can be difficult, as small absolute errors translate into large relative errors in highly protein-bound drugs ([26], [27]). Second, the PK/PD target for AUC is not well established in clinical trials, and the currently used targets are based on murine model ...

A short description of data set [4]: two-compartment population pharmacokinetic model (Pmetrics NPAG) in critically ill ICU patients. The conditions noted are these: 20 ICU patients. The data set is classed as in vivo, human. As to the method:
This study included data from a prospective study in 20 adult critically ill patients admitted to an ICU with suspected invasive candidiasis and treated with caspofungin ([6]). For more details about the study population, see our previous publication ([6]).
All patients received a loading dose of 70 mg on the first day of treatment. The subsequent dose was 50 mg for patients weighing ≤80 kg, 70 mg for patients weighing >80 kg, and 35 mg and 50 mg, respectively, for patients with moderate hepatic impairment (Child-Pugh score of 7 to 9) ([8]). Caspofungin was administered as a 1-h infusion.
As the steady state for caspofungin is reached on the second day after the loading dose, blood sampling was performed on day 3 (range, 2 to 4) ([22]). […] The rationale for this target is described in detail in our previous publication ([6]). The sampling was performed before the administration and 1, 2, 3, 4, 6, 8, 12, and 24 h after the start of the caspofungin infusion. Caspofungin plasma concentrations were measured using a validated liquid chromatography-tandem mass spectrometry assay ([30]).
The pharmacokinetic modeling, probability of target attainment, and visual predictive checks were performed using the nonparametric adaptive grid program (NPAG) in Pmetrics (version 1.5.2) for R (version 3.6.1) (Laboratory of Applied Pharmacokinetics and Bioinformatics, Los Angeles, CA) ([16]).
The covariate selection was performed using the PMstep command of Pmetrics. Each covariate was tested in a linear regression analysis on pharmacokinetic parameters to see if there was a significant effect on AIC value (P < 0.05). […] The covariates, tested with a forward addition method, were weight, age, gender, concomitant administration of prednisolone/hydrocortisone, dialysis, aspartate aminotransferase (AST), alanine aminotransferase (ALT), gamma-glutamyl transpeptidase (GGT), bilirubin, albumin, C-reactive protein, leukocyte count, and simplified acute physiology score (SAPS 3).
The models were analyzed and compared using individual and population observed versus predicted goodness-of-fit plots, AIC, BIC, and −2 log likelihood. The prediction error was evaluated using bias (mean weighted prediction error) and imprecision (bias-adjusted mean weighted squared prediction error) for both the individual and population models. During the population modeling assay, error (standard deviation) and environmental noise were considered. For this, we used error polynomials in the following equation: standard deviation = C0 + C1 × observed concentration. The value 0.05 was used for C0 and 0.08 for C1. Gamma multiplicative and lambda additive error models were tested to estimate residual error ([12], [31]).

Turning to `CC[C@H](C)C[C@H](C)CCCCCCCCC(=O)N[C@H]1C[C@@H](O)[C@@H](NCCN)NC(=O)[C@@H]2[C@@H](O)CCN2C(=O)[C@H]([C@H](O)CCN)NC(=O)[C@H]([C@H](O)[C@@H](O)c2ccc(O)cc2)NC(=O)[C@@H]2C[C@@H](O)CN2C(=O)[C@H]([C@@H](C)O)NC1=O` [caspofungin], in data set [1], the CL was 0.54 L/h and the V is 7.03 L. In addition, the tolerability result in data set [2] is reported as “good tolerability was observed, with no described dose-limiting toxicity”. Besides, the protein bound in data set [3] was about 97%. Besides, the “Ke, elimination rate constant, mean” value in data set [4] (1-h infusion, plasma LC-MS/MS, final two-compartment model) is 0.09 h⁻¹. The “V0, volume of distribution, median” value in data set [4] (final model, V = V0 · weight/78) amounted to 7.20 L/kg. In data set [4] (final two-compartment model), the “Ke, elimination rate constant, median” value amounted to 0.08 h⁻¹; the “kcp, rate constant central to peripheral compartment, mean” value was 0.44 h⁻¹; the “kcp, rate constant central to peripheral compartment, median” value stood at 0.28 h⁻¹; the “kpc, rate constant peripheral to central compartment, mean” value amounted to 0.46 h⁻¹. The “kpc, rate constant peripheral to central compartment, median” value in data set [4] (final two-compartment model) was 0.34 h⁻¹.
